Experimental data published in ChEMBL document CHEMBL5653631, “A Potent and Selective ULK1 Inhibitor Suppresses Autophagy and Sensitizes Cancer Cells to Nutrient Stress” (iScience, 2018).

Legend:
[1] = molecular target: Proto-oncogene tyrosine-protein kinase ROS (Homo sapiens) (UniProt P08922); assay: Inhibition of human recombinant ROS at 40 nM in presence of ATP by radiometric assay relative to control
[2] = molecular target: Serine/threonine-protein kinase WNK2 (Homo sapiens) (UniProt Q9Y3S1); assay: Inhibition of human recombinant Wnk2 at 40 nM in presence of ATP by radiometric assay relative to control
Chain of Serine/threonine-protein kinase WNK2 (Homo sapiens) (Q9Y3S1 whole entry): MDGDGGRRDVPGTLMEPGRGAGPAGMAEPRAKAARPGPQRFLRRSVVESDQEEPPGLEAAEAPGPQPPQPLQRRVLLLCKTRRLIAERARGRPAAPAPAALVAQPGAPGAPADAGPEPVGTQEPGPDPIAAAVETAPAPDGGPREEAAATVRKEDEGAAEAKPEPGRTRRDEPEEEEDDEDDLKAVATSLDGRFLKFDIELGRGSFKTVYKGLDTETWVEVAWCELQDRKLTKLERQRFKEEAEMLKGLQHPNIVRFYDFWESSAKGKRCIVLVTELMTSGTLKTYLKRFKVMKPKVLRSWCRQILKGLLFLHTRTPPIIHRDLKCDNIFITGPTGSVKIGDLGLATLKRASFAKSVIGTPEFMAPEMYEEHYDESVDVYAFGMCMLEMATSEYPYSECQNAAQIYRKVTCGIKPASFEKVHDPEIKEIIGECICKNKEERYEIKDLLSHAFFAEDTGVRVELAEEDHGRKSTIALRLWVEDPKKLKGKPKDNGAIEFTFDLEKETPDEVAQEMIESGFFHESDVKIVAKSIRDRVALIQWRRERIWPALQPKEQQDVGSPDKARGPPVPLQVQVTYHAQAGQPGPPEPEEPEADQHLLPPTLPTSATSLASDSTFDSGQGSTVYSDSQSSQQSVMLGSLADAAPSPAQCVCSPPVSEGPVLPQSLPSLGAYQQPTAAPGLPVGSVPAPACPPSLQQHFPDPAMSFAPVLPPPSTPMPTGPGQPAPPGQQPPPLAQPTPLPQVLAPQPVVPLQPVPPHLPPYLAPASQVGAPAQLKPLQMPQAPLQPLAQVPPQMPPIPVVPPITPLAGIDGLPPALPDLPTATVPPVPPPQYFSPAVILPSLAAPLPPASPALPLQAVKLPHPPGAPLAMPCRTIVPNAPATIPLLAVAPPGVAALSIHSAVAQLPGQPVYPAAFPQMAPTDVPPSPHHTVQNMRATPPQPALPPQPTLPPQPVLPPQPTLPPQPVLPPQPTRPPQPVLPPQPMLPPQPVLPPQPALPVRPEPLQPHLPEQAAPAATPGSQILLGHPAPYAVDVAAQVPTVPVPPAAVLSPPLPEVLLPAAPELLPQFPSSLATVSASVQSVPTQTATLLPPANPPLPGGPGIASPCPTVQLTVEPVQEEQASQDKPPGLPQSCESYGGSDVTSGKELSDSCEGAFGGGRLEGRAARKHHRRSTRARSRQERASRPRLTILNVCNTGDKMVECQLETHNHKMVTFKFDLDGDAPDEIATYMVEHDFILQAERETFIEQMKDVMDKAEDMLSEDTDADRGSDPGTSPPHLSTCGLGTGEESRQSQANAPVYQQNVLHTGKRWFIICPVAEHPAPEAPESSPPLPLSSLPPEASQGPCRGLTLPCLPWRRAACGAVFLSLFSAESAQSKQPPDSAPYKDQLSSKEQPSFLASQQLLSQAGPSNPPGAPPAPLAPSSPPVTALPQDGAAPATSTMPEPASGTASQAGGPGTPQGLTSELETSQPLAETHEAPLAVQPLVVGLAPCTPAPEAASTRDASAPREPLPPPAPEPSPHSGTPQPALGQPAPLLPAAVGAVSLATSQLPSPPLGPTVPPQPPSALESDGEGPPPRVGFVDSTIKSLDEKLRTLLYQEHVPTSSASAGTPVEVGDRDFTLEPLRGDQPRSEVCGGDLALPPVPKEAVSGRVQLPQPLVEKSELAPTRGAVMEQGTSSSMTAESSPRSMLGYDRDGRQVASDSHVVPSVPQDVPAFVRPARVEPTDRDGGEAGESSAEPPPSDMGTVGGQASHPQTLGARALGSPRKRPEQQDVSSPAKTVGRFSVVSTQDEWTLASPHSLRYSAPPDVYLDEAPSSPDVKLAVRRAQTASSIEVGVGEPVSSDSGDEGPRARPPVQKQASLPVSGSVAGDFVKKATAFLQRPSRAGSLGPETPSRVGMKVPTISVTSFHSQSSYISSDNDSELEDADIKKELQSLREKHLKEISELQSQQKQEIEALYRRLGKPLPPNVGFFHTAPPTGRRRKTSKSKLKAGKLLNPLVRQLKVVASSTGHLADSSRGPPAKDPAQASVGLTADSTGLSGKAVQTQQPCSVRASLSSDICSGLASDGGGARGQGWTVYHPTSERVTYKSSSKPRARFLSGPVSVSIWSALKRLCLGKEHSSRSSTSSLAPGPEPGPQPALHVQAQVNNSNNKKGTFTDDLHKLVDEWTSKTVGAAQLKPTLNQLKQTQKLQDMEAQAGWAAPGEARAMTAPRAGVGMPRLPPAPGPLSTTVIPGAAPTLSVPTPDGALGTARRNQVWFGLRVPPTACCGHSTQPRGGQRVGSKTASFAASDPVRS

[3] = molecular target: Calcium/calmodulin-dependent protein kinase type 1G (Homo sapiens) (UniProt Q96NX5); assay: Inhibition of human recombinant CaMK1g at 40 nM related to control ULK1
Chain of Calcium/calmodulin-dependent protein kinase type 1G (Homo sapiens) (Q96NX5 whole entry): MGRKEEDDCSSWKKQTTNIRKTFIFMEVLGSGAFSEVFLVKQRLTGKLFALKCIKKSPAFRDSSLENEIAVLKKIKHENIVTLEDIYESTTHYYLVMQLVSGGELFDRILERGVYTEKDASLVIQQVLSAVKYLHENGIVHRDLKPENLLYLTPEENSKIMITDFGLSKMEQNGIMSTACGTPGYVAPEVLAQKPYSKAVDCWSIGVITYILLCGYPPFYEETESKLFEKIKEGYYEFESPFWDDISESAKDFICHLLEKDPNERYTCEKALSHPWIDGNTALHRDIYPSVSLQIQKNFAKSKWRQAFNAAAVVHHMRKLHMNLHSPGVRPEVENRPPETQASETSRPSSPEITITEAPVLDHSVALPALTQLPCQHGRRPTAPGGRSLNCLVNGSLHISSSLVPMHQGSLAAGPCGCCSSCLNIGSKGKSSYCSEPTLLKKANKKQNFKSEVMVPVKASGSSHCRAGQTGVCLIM

[4] = molecular target: T1, Dual specificity mitogen-activated protein kinase kinase 6 (Homo sapiens) (UniProt P52564); assay: Inhibition of human recombinant MAP2K6 at 40 nM related to control ULK1
T1 sequence (whole entry): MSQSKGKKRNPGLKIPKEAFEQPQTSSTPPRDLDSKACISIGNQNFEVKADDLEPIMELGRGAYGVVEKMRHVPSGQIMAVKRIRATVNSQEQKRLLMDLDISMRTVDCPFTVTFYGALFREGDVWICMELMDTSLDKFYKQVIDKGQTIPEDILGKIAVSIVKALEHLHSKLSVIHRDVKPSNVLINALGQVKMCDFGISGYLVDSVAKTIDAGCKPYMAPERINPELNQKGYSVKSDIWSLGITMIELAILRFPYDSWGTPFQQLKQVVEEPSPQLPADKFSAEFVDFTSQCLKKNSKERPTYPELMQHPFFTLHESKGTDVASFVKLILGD

[5] = molecular target: Proto-oncogene tyrosine-protein kinase Src (Homo sapiens) (UniProt P12931); assay: Inhibition of human recombinant SRC at 40 nM related to control ULK1
Chain of Proto-oncogene tyrosine-protein kinase Src (Homo sapiens) (P12931 2-536 limits assumed): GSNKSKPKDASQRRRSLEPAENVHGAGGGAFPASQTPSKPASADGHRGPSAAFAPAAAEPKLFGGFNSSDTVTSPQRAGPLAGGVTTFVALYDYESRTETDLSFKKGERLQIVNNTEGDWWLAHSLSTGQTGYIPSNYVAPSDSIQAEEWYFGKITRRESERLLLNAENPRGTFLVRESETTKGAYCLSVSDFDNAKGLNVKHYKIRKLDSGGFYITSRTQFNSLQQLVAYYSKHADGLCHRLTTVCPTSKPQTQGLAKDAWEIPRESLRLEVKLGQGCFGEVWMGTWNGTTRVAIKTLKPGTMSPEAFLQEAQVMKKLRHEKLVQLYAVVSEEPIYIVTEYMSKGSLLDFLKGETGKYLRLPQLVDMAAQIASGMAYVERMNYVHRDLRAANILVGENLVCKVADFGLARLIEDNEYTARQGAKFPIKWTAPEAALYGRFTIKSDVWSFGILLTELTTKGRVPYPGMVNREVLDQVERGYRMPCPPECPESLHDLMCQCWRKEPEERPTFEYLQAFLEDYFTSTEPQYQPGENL

U2OS = assay: cells; conditions: Homo sapiens
Description: Inhibition of autophagy in human U2OS cells assessed as BafA1-induced LC3B-II accumulation preincubated with compound for 3 hrs and followed by BafA1 induction and measured after 1.5 hrs by immunoblotting analysis

[6] = molecular target: Protein kinase C iota type (Homo sapiens) (UniProt P41743); assay: Inhibition of human recombinant PKCi at 40 nM related to control ULK1
Chain of Protein kinase C iota type (Homo sapiens) (P41743 whole entry, looked up): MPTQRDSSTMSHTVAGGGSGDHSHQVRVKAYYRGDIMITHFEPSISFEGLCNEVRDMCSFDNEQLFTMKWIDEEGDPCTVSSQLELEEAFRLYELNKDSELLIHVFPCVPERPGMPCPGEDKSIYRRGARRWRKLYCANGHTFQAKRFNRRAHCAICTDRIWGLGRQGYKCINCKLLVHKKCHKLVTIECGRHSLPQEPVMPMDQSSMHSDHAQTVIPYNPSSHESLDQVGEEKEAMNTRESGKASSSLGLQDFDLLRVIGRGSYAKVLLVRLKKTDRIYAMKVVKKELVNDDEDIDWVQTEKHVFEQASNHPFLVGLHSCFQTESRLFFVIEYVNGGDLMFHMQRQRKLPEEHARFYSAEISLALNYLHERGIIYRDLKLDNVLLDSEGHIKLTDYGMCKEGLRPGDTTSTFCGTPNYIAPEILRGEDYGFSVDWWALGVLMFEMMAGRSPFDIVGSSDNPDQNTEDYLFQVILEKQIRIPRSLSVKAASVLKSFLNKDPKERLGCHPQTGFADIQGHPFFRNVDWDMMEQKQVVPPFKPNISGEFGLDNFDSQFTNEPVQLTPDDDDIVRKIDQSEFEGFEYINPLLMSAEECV

[7] = molecular target: Homeodomain-interacting protein kinase 3 (Homo sapiens) (UniProt Q9H422); assay: Inhibition of human recombinant HIPK3 at 15 nM related to control ULK1
Chain of Homeodomain-interacting protein kinase 3 (Homo sapiens) (Q9H422 whole entry, looked up): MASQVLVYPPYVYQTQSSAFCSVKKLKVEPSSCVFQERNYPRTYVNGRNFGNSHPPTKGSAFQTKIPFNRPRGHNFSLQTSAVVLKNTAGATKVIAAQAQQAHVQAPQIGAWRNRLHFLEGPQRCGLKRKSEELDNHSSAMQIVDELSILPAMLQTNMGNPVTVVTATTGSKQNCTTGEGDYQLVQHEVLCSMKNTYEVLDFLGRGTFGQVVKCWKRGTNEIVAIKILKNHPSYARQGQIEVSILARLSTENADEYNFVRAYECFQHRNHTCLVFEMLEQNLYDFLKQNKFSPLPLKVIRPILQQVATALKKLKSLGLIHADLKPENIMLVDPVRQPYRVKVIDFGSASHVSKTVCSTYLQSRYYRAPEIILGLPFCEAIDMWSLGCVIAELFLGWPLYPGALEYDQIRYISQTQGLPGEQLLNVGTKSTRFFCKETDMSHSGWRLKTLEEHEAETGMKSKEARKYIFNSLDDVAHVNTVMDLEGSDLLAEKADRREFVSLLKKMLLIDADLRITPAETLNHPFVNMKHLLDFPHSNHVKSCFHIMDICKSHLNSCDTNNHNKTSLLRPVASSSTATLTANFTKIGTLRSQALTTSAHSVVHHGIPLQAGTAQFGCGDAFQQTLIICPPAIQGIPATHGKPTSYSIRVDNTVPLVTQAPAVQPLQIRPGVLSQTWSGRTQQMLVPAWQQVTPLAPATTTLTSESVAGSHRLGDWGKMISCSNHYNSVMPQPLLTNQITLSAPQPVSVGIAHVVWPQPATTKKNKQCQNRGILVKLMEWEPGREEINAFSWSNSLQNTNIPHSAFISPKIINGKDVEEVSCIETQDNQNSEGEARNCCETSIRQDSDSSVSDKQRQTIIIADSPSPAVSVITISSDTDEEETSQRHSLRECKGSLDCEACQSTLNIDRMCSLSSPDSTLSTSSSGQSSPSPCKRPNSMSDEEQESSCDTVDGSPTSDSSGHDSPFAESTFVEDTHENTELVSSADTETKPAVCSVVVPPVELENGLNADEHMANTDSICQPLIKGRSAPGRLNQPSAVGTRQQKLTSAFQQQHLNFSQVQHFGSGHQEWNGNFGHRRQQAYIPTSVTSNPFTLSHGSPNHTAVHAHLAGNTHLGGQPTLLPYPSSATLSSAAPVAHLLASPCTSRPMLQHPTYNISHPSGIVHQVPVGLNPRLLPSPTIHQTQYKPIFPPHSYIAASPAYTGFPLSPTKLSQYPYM

[8] = molecular target: T2, Inhibitor of nuclear factor kappa-B kinase subunit alpha (Homo sapiens) (UniProt O15111); assay: Inhibition of human recombinant IKKa at 15 nM related to control ULK1
T2 sequence (whole entry): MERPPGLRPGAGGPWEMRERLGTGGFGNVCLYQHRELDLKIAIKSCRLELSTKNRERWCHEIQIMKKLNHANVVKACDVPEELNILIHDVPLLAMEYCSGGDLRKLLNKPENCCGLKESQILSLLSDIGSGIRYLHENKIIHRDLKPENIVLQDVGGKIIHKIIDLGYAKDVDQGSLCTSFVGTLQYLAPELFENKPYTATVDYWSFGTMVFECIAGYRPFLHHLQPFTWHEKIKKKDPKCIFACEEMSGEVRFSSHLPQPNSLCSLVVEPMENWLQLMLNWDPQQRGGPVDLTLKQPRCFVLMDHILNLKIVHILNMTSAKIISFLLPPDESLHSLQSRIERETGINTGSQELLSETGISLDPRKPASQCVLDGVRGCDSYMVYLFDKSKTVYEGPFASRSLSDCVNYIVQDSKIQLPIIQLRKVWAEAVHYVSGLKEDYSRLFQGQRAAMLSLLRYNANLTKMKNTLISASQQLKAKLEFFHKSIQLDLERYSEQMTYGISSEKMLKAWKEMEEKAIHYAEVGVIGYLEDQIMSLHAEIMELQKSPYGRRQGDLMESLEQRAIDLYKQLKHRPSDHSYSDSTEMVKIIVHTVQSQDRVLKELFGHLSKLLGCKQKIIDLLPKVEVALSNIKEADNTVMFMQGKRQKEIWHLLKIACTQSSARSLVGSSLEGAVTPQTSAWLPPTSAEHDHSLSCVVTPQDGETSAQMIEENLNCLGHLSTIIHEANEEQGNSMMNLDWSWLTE

Homo sapiens = species on record: Homo sapiens; assay: Inhibition of human recombinant KHS1 at 500 nM in presence of ATP by radiometric assay relative to control
[9] = molecular target: T3, Rhodopsin kinase GRK1 (Homo sapiens) (UniProt Q15835); assay: Inhibition of human recombinant RHOK at 500 nM in presence of ATP by radiometric assay relative to control
T3 sequence (whole entry): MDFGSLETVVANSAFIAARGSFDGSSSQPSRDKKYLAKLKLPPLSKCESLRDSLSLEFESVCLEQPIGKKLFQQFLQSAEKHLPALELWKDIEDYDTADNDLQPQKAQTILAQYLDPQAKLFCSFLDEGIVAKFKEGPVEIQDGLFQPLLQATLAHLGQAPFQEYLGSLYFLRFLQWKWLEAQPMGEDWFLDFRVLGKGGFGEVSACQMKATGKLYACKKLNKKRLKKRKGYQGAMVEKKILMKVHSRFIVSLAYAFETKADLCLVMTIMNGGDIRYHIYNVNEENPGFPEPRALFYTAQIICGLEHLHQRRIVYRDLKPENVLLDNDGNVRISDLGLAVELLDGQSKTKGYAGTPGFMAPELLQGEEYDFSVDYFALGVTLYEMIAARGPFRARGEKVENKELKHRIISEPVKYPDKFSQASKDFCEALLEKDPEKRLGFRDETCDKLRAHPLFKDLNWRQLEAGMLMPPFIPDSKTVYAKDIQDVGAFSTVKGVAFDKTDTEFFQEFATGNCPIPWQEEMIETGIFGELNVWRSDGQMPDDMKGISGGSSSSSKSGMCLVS

[10] = molecular target: [Pyruvate dehydrogenase (acetyl-transferring)] kinase isozyme 4, mitochondrial (Homo sapiens) (UniProt Q16654); assay: Inhibition of human recombinant PDHK4 at 500 nM related to control ULK1

`O=C(N[C@@H](C1CC1)C(F)(F)F)c1cc(-c2cnn3cc(-c4ccc(F)cc4)cnc23)cs1` was tested, and the inhibition [1] was 0%, the inhibition [2] was 3% and the fold change (FC) [3] was 0. It also gave a fold change (FC) [4] of 0, a fold change (FC) [5] of 0.03 and an EC50 (U2OS) of 700 nM. The fold change (FC) [6] was 0.
`CC(C)[C@H](NC(=O)c1cc(-c2cnn3cc(-c4ccc(OCCN5CCCCC5)cc4)cnc23)cs1)C(F)(F)F` showed a fold change (FC) [7] of 0 and a fold change (FC) [8] of 0.01.
`CNC(=O)c1ccccc1Oc1nc(Nc2cc(OC)c(OC)c(OC)c2)ncc1Br` was tested, and the inhibition (Homo sapiens) was 11%, the inhibition [9] was 0% and the fold change (FC) [10] was 0.07.
